What was measured:
LIMK2 = target: T1, LIMK2 (Homo sapiens, UniProt P53671); test: LanthaScreen Binding - Eu-anti-GST; settings: read-out: Percentage of inhibition
T1 construct: purchased Life Technologies (SelectScreen Whole Panel service)
Procedure: (§1) We further evaluated the selectivity profile of compound 55 on a larger panel of kinases (SelectScreen Whole Panel, Life Technologies). The inhibition profile of 55, evaluated at 1 μM, is depicted on a dendrogram on Figure 3 where kinases inhibited by a minimum of 80% are shown. A full list of the kinases tested is shown on Table S1 in supplementary information.

MAP3K14 (NIK) = target: T2, MAP3K14 (NIK) (Homo sapiens, UniProt Q99558); test: LanthaScreen Binding - Eu-anti-GST; settings: read-out: Percentage of inhibition
T2 construct: purchased Life Technologies (SelectScreen service)
Procedure: as §1

CDK16 (PCTK1)/cyclin Y = target: T3, CDK16 (PCTK1)/cyclin Y (Homo sapiens, UniProt Q00536); test: LanthaScreen Binding - Eu-anti-GST; settings: read-out: Percentage of inhibition
T3 construct: purchased Life Technologies
Procedure: as §1

GRK1 = target: T4, GRK1 (Homo sapiens, UniProt Q15835); test: LanthaScreen Binding - Eu-anti-GST; settings: read-out: Percentage of inhibition
T4 construct: purchased Life Technologies (SelectScreen Whole Panel)
Procedure: as §1

ERN2 = target: T5, ERN2 (Homo sapiens, UniProt Q76MJ5); test: LanthaScreen Binding - Eu-anti-GST; settings: read-out: Percentage of inhibition
T5 construct: purchased Life Technologies (SelectScreen)
Procedure: as §1

KIT V559D T670I = target: T6, KIT V559D T670I (Homo sapiens, UniProt P10721, T670I/V559D); test: LanthaScreen Binding - Eu-anti-GST; settings: read-out: Percentage of inhibition
T6 construct: purchased Life Technologies
Procedure: as §1

STK17B (DRAK2) = target: T7, STK17B (DRAK2) (Homo sapiens, UniProt O94768); test: LanthaScreen Binding - Eu-anti-GST; settings: ATP Km, read-out: Percentage of inhibition
T7 construct: purchased Life Technologies
Procedure: as §1

KIT A829P = target: T8, KIT A829P (Homo sapiens, UniProt P10721, A829P); test: LanthaScreen Binding - Eu-anti-GST; settings: read-out: Percentage of inhibition
T8 construct: purchased Life Technologies (SelectScreen service)
Procedure: as §1

ANKK1 = target: T9, ANKK1 (Homo sapiens, UniProt Q8NFD2); test: LanthaScreen Binding - Eu-anti-GST; settings: read-out: Percentage of inhibition
T9 construct: purchased Life Technologies (SelectScreen service)
Procedure: as §1

LATS2 = target: T10, LATS2 (Homo sapiens, UniProt Q9NRM7); test: LanthaScreen Binding - Eu-anti-GST; settings: read-out: Percentage of inhibition
T10 construct: purchased Life Technologies (SelectScreen service)
Procedure: as §1

CAMKK2 (CaMKK beta) = target: T11, CAMKK2 (CaMKK beta) (Homo sapiens, UniProt Q96RR4); test: LanthaScreen Binding - Eu-anti-GST; settings: read-out: Percentage of inhibition
T11 construct: purchased Life Technologies (SelectScreen Whole Panel service)
Procedure: as §1

MAP3K2 (MEKK2) = target: T12, MAP3K2 (MEKK2) (Homo sapiens, UniProt Q9Y2U5); test: LanthaScreen Binding - Eu-anti-GST; settings: read-out: Percentage of inhibition
T12 construct: purchased Life Technologies
Procedure: as §1

CDK11 (Inactive) = CDK11 (Inactive) (Homo sapiens, UniProt Q9BWU1); test: LanthaScreen Binding - Eu-anti-GST; settings: read-out: Percentage of inhibition
Procedure: as §1

BRAF = target: T13, BRAF (Homo sapiens, UniProt P15056); test: LanthaScreen Binding - Eu-anti-GST; settings: read-out: Percentage of inhibition
T13 construct: purchased Life Technologies (SelectScreen Whole Panel)
Procedure: as §1

TAOK3 (JIK) = target: T14, TAOK3 (JIK) (Homo sapiens, UniProt Q9H2K8); test: LanthaScreen Binding - Eu-anti-GST; settings: read-out: Percentage of inhibition
T14 construct: purchased Life Technologies (SelectScreen service)
Procedure: as §1

MAPK10 (JNK3) = target: T15, MAPK10 (JNK3) (Homo sapiens, UniProt P53779); test: LanthaScreen Binding - Eu-anti-GST; settings: read-out: Percentage of inhibition
T15 construct: purchased Life Technologies
Procedure: as §1

MLK4 = target: T16, MLK4 (Homo sapiens, UniProt Q5TCX8); test: LanthaScreen Binding - Eu-anti-GST; settings: read-out: Percentage of inhibition
T16 construct: purchased Life Technologies (SelectScreen Whole Panel service)
Procedure: as §1

EPHA6 = EPHA6 (Homo sapiens, UniProt Q9UF33); test: LanthaScreen Binding - Eu-anti-GST; settings: read-out: Percentage of inhibition
Procedure: as §1

CDK2/cyclin A1 = target: T17, CDK2/cyclin A1 (Homo sapiens, UniProt P24941); test: LanthaScreen Binding - Eu-anti-GST; settings: read-out: Percentage of inhibition
T17 construct: purchased Life Technologies (SelectScreen Whole Panel service)
Procedure: as §1

SIK3 = SIK3 (Homo sapiens, UniProt Q9Y2K2); test: LanthaScreen Binding - Eu-anti-GST; settings: read-out: Percentage of inhibition
Procedure: as §1

RIPK3 = target: T18, RIPK3 (Homo sapiens, UniProt Q9Y572); test: LanthaScreen Binding - Eu-anti-GST; settings: read-out: Percentage of inhibition
T18 construct: purchased Life Technologies (SelectScreen Whole Panel)
Procedure: as §1

ALK R1275Q = target: T19, ALK R1275Q (Homo sapiens, UniProt Q9UM73, R1275Q); test: LanthaScreen Binding - Eu-anti-GST; settings: read-out: Percentage of inhibition
T19 construct: purchased Life Technologies (SelectScreen service)
Procedure: as §1

KIT D820E = target: T20, KIT D820E (Homo sapiens, UniProt P10721, D820E); test: LanthaScreen Binding - Eu-anti-GST; settings: read-out: Percentage of inhibition
T20 construct: purchased Life Technologies (SelectScreen service)
Procedure: as §1

IRAK3 = target: T21, IRAK3 (Homo sapiens, UniProt Q9Y616); test: LanthaScreen Binding - Eu-anti-GST; settings: read-out: Percentage of inhibition
T21 construct: purchased Life Technologies (SelectScreen service)
Procedure: as §1

KIT N822K = target: T22, KIT N822K (Homo sapiens, UniProt P10721, N822K); test: LanthaScreen Binding - Eu-anti-GST; settings: read-out: Percentage of inhibition
T22 construct: purchased Life Technologies (SelectScreen Whole Panel service)
Procedure: as §1

ADCK3 = ADCK3 (Homo sapiens, UniProt Q8NI60); test: LanthaScreen Binding - Eu-anti-GST; settings: read-out: Percentage of inhibition
Procedure: as §1

ACVR1 (ALK2) R206H = ACVR1 (ALK2) R206H (Homo sapiens, UniProt Q04771, R206H); test: LanthaScreen Binding - Eu-anti-GST; settings: read-out: Percentage of inhibition
Procedure: as §1

FLT3 ITD = test: LanthaScreen Binding - Eu-anti-GST; settings: 1 µM
Procedure: as §1

ACVR2B = ACVR2B (Homo sapiens, UniProt Q13705); test: LanthaScreen Binding - Eu-anti-GST; settings: read-out: Percentage of inhibition
Procedure: as §1

CAMK2G (CaMKII gamma) = target: T23, CAMK2G (CaMKII gamma) (Homo sapiens, UniProt Q13555); test: LanthaScreen Binding - Eu-anti-GST; settings: read-out: Percentage of inhibition
T23 construct: purchased Life Technologies
Procedure: as §1

TAOK1 = target: T24, TAOK1 (Homo sapiens, UniProt Q7L7X3); test: LanthaScreen Binding - Eu-anti-GST; settings: read-out: Percentage of inhibition
T24 construct: purchased Life Technologies
Procedure: as §1

PKN2 (PRK2) = target: T25, PKN2 (PRK2) (Homo sapiens, UniProt Q16513); test: LanthaScreen Binding - Eu-anti-GST; settings: read-out: Percentage of inhibition
T25 construct: purchased Life Technologies
Procedure: as §1

DMPK = DMPK (Homo sapiens, UniProt Q09013); test: LanthaScreen Binding - Eu-anti-GST; settings: read-out: Percentage of inhibition
Procedure: as §1

NLK = target: T26, NLK (Homo sapiens, UniProt Q9UBE8); test: LanthaScreen Binding - Eu-anti-GST; settings: read-out: Percentage of inhibition
T26 construct: purchased Life Technologies (SelectScreen Whole Panel service)
Procedure: as §1

AMPK (A1/B2/G1) = target: T27, AMPK (A1/B2/G1) (Homo sapiens, UniProt Q13131); test: LanthaScreen Binding - Eu-anti-His; settings: read-out: Percentage of inhibition
T27 construct: purchased Life Technologies (SelectScreen service)
Procedure: as §1

MAPK9 (JNK2) = target: T28, MAPK9 (JNK2) (Homo sapiens, UniProt P45984); test: LanthaScreen Binding - Eu-anti-His; settings: read-out: Percentage of inhibition
T28 construct: purchased Life Technologies (SelectScreen service)
Procedure: as §1

DAPK2 = target: T29, DAPK2 (Homo sapiens, UniProt Q9UIK4); test: LanthaScreen Binding - Eu-anti-His; settings: read-out: Percentage of inhibition
T29 construct: purchased Life Technologies (SelectScreen service)
Procedure: as §1

WNK3 = target: T30, WNK3 (Homo sapiens, UniProt Q9BYP7); test: LanthaScreen Binding - Eu-anti-His; settings: read-out: Percentage of inhibition
T30 construct: purchased Life Technologies (SelectScreen Whole Panel)
Procedure: as §1

AMPK (A1/B1/G2) = target: T31, AMPK (A1/B1/G2) (Homo sapiens, UniProt Q13131); test: LanthaScreen Binding - Eu-anti-His; settings: read-out: Percentage of inhibition
T31 construct: purchased Life Technologies (SelectScreen service)
Procedure: as §1

KIT V654A = target: T32, KIT V654A (Homo sapiens, UniProt P10721, V654A); test: LanthaScreen Binding - Eu-anti-His; settings: read-out: Percentage of inhibition
T32 construct: purchased Life Technologies (SelectScreen service)
Procedure: as §1

T28 sequence (P45984 whole entry): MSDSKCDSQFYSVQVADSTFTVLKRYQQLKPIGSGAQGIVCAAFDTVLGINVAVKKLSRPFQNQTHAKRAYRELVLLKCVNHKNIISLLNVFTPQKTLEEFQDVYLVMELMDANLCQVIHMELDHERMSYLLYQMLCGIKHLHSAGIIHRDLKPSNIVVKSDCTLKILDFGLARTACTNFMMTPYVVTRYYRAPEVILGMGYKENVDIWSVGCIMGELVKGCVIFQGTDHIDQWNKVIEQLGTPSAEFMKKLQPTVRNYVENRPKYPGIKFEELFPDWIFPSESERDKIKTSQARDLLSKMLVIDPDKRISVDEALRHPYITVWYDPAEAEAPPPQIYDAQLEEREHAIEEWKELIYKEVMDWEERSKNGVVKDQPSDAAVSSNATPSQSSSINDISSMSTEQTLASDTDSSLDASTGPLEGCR
Chain of DMPK (Q09013 whole entry): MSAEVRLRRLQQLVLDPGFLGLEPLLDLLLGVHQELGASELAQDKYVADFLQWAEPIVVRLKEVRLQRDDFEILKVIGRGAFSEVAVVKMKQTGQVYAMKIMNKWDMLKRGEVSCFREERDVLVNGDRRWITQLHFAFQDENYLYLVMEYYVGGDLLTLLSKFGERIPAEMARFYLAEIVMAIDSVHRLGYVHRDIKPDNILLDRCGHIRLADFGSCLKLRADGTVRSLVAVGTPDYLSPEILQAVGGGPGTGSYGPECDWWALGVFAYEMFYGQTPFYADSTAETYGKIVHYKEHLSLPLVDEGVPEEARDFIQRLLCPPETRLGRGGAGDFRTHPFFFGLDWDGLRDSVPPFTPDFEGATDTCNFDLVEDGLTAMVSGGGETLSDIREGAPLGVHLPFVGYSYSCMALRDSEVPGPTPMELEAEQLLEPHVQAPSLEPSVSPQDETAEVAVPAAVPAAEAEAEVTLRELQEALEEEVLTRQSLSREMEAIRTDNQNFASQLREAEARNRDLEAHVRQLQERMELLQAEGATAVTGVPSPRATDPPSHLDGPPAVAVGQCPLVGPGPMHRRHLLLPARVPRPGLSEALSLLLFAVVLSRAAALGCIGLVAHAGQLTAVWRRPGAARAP
T23 sequence (Q13555 whole entry): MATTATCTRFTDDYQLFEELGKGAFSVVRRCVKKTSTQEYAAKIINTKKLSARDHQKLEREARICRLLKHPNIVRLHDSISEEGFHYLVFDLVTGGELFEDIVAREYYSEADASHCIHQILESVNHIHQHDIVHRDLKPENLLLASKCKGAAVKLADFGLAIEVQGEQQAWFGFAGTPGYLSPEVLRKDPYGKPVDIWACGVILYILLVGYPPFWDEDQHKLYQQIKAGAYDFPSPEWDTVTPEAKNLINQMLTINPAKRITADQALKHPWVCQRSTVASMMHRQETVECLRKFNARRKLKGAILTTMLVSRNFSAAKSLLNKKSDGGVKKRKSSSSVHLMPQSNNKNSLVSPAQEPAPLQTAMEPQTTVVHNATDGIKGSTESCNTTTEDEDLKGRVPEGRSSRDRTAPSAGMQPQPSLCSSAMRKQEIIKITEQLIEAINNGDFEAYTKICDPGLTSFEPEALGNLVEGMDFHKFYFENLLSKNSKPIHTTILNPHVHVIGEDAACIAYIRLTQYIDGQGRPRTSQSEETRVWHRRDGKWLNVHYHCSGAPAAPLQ
T9 sequence (Q8NFD2 whole entry): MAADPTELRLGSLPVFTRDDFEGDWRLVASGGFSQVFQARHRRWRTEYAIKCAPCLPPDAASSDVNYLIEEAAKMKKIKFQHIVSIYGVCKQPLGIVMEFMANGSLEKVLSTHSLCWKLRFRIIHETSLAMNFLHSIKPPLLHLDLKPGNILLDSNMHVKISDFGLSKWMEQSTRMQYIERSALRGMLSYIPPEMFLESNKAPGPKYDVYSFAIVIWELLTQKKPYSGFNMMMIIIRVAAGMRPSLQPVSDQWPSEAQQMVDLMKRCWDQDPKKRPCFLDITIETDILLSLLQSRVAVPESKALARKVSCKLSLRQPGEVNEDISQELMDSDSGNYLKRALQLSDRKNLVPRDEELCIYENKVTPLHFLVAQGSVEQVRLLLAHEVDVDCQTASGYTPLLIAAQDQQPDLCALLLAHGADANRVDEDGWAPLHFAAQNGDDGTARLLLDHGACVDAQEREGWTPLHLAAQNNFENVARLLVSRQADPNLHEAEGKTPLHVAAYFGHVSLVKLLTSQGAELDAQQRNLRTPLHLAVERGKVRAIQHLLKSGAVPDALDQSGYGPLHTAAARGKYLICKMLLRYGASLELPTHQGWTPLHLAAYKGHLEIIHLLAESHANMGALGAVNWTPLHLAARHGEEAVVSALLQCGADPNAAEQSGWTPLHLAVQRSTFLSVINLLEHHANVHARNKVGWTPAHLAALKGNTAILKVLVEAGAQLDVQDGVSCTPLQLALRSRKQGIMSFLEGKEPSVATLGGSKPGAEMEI
Chain of SIK3 (Q9Y2K2 whole entry): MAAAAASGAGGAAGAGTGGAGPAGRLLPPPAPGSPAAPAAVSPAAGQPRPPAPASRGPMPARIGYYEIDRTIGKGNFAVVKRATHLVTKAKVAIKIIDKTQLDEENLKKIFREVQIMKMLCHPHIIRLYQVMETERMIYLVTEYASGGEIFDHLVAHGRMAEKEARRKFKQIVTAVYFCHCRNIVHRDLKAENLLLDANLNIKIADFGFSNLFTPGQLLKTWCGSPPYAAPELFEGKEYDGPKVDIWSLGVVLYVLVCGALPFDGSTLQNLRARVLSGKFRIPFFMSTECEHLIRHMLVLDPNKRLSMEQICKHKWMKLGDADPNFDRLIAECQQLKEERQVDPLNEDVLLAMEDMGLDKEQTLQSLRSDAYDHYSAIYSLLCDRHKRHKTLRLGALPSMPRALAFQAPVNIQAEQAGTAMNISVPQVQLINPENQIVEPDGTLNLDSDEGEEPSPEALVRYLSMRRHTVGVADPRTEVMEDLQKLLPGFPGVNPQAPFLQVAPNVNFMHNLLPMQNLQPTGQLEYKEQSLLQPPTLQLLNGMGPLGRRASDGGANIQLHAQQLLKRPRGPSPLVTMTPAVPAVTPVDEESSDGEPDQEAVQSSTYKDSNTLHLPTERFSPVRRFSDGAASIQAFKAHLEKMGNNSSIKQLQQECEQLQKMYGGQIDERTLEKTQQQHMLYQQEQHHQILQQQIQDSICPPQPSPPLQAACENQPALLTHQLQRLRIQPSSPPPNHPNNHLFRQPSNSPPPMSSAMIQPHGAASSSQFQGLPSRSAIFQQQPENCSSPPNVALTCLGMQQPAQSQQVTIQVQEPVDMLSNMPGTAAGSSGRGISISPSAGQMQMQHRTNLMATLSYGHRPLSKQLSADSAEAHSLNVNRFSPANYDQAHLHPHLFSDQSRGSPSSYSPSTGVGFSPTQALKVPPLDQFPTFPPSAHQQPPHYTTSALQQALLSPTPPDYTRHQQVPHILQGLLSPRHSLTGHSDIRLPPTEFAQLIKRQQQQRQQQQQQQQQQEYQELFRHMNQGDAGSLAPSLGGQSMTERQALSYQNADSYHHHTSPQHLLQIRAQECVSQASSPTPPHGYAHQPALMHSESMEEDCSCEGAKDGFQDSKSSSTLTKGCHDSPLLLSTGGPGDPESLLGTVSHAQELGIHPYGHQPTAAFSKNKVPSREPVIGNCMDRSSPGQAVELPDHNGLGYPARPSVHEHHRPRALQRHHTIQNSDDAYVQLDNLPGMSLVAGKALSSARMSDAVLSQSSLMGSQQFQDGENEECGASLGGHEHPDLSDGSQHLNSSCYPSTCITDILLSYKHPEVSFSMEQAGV
T25 sequence (Q16513 whole entry): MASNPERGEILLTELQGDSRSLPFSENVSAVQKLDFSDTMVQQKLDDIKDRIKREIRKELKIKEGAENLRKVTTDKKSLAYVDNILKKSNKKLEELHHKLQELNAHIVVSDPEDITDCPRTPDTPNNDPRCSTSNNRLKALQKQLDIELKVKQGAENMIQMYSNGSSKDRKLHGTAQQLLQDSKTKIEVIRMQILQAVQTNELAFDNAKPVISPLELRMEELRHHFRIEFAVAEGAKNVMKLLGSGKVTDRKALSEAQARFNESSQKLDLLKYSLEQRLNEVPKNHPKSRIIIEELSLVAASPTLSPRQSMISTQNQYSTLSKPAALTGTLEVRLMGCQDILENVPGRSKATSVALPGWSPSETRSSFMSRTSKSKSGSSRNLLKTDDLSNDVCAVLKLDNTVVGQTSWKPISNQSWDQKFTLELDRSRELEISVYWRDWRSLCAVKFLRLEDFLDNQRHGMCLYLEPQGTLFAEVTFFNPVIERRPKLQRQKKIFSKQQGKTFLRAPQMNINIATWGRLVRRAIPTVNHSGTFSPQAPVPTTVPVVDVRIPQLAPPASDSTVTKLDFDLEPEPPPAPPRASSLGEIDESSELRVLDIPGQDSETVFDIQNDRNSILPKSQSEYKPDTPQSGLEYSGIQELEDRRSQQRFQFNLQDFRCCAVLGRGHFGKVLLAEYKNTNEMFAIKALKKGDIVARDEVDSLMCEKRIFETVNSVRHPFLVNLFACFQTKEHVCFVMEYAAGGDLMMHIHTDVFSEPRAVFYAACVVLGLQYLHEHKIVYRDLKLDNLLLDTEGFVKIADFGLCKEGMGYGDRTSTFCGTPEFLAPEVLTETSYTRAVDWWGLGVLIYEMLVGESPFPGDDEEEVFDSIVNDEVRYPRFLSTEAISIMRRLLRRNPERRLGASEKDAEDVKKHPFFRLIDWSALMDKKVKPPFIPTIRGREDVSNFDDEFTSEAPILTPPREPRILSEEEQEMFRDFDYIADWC
T29 sequence (Q9UIK4 whole entry): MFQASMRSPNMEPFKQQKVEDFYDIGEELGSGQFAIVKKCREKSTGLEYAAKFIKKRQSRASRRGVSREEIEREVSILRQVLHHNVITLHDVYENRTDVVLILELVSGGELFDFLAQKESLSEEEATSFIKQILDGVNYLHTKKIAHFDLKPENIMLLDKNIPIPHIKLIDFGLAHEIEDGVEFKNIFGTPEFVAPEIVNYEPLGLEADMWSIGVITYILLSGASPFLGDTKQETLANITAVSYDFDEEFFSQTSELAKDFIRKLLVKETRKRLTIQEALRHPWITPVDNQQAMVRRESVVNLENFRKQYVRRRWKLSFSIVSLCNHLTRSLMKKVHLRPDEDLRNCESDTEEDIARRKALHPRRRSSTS

Question: Which results are given for `COc1ccc2[nH]c3c(=O)[nH]c4ccc(O)cc4c3c2c1` [Compound 55, 2-Hydroxy-10-methoxy-5,7-dihydro-6H-indolo[2,3-c]quinolin-6-one]?
Answer: inhibition at 1 µM (LIMK2): 11%; inhibition at 1 µM (MAP3K14 (NIK)): 79%; inhibition at 1 µM (CDK16 (PCTK1)/cyclin Y): 38%; inhibition at 1 µM (GRK1): 50%; inhibition at 1 µM (ERN2): 8%; inhibition at 1 µM (KIT V559D T670I): 32%; inhibition at 1 µM (STK17B (DRAK2)): 93%; inhibition at 1 µM (KIT A829P): 76%; inhibition at 1 µM (ANKK1): 90%; inhibition at 1 µM (LATS2): 82%; inhibition at 1 µM (CAMKK2 (CaMKK beta)): 10%; inhibition at 1 µM (MAP3K2 (MEKK2)): 42%; inhibition at 1 µM (CDK11 (Inactive)): 13%; inhibition at 1 µM (BRAF): 6%; inhibition at 1 µM (TAOK3 (JIK)): 24%; inhibition at 1 µM (MAPK10 (JNK3)): 29%; inhibition at 1 µM (MLK4): 18%; inhibition at 1 µM (EPHA6): 21%; inhibition at 1 µM (CDK2/cyclin A1): 43%; inhibition at 1 µM (SIK3): 7%; inhibition at 1 µM (RIPK3): -6%; inhibition at 1 µM (ALK R1275Q): 23%; inhibition at 1 µM (KIT D820E): 24%; inhibition at 1 µM (IRAK3): 77%; inhibition at 1 µM (KIT N822K): 45%; inhibition at 1 µM (ADCK3): 60%; inhibition at 1 µM (ACVR1 (ALK2) R206H): 14%; Percentage of inhibition (FLT3 ITD): 97%; inhibition at 1 µM (ACVR2B): 21%; inhibition at 1 µM (CAMK2G (CaMKII gamma)): 30%; inhibition at 1 µM (TAOK1): 35%; inhibition at 1 µM (PKN2 (PRK2)): 32%; inhibition at 1 µM (DMPK): 63%; inhibition at 1 µM (NLK): 15%; inhibition at 1 µM (AMPK (A1/B2/G1)): 86%; inhibition at 1 µM (MAPK9 (JNK2)): 25%; inhibition at 1 µM (DAPK2): 90%; inhibition at 1 µM (WNK3): 2%; inhibition at 1 µM (AMPK (A1/B1/G2)): 81%; inhibition at 1 µM (KIT V654A): 25%

From paper PMC9186362, “Design and biological evaluation of substituted 5,7-dihydro-6H-indolo[2,3-c]quinolin-6-one as novel selective Haspin inhibitors” (Journal of Enzyme Inhibition and Medicinal Chemistry, 2022)
